{
  "source": "patent US6565859B1",
  "about": "“Galenical formulations” (Novartis AG, priority 1993, dated 2003)",
  "key": {"in vivo": {"test": "in vivo", "conditions": "male, Wistar, rat, whole blood, po, 10 mg", "protocol": "(§1) Formulation A is an emulsion preconcentrate and formulation B is a microemulsion preconcentrate. 6 male Wistar rats of mean body weight of 300 g are used per form. One day before treatment, food is withdrawn from the rats but the rats are permitted free access to water. The rats are then anesthetized by intraperitoneal injection of 2×1 ml 20% urethane and a permanent catheter is inserted into the right vena jugularis to permit blood sampling. 500 ml/animal of the formulation is administered by gastric intubation 20 hours after the surgery. A total dose of 10 mg of drug per animal is administered. Blood samples of 0.7 ml are taken from the jugular catheter of each animal 15 minutes before drug administration and then 0.17, 0.5, 1, 1.5, 2, 3, 5 and 8 hours after drug administration. The samples are kept in heparinized tubes and are analysed by means of ELISA using microtitre plates coated with rapamycin specific antibodies. The animals are killed immediately after taking the last blood sample."}, "[1]": {"test": "Pharmacokinetics in rats after gastric intubation, blood levels by ELISA with rapamycin specific antibodies", "conditions": "Example 3; rapamycin given in formulations A and B, 10 mg per rat, oral", "protocol": "as §1"}},
  "data": [
    {"smiles": "CO[C@H]1C[C@@H]2CC[C@@H](C)[C@@](O)(O2)C(=O)C(=O)N2CCCC[C@H]2C(=O)O[C@H]([C@H](C)C[C@@H]2CC[C@@H](O)[C@H](OC)C2)CC(=O)[C@H](C)/C=C(\\C)[C@@H](O)[C@@H](OC)C(=O)[C@H](C)C[C@H](C)/C=C/C=C/C=C/1C", "note": "[rapamycin, Rapamycin]", "values": [
      {"measurement": "Cmax", "setting": "in vivo", "value": "2670 to 3400", "unit": "ng/mL"},
      {"measurement": "absorption (result in words)", "setting": "[1]", "value": "well absorbed"}
    ]}
  ]
}
